Patent US20260262643A1, “HERBICIDAL BENZOXAZINES” (FMC CORPORATION, priority 2022, published 2026)

Assays:
ducksalad = test: Test D flooded paddy test; type: in vivo, Heteranthera limosa; settings: 250 g ai/ha, applied to paddy water, visual rating after 13 to 14 days, scale 0 to 100 (0 no effect, 100 complete control)
How it was run: (§1)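 Rating scale 0–100 (0 no effect, 100 complete control), visual, versus controls. Readout at 13–14 days after in-water application to 2-leaf plants in pots flooded 3 cm deep.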

galium = test: Test C postemergence; type: in vivo, Galium aparine; settings: 10 days
How it was run: (§2)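 Pre: seeds in loam/sand, directed soil spray. Post: 1–2 leaf plants, 2–10 cm. Cmpd in non-phytotoxic solvent + surfactant. Greenhouse 10 d; visual rating vs untreated, 0 = none, 100 = complete control.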

blackgrass [1] = test: Test C postemergence; type: in vivo, Alopecurus myosuroides; settings: 10 days
How it was run: as §2

corn [2] = test: Test C preemergence; type: in vivo, Zea mays; settings: 0 to 100 scale (0 no effect, 100 complete control); for Corn plant response rating: preemergence
How it was run: as §2

blackgrass [3] = test: Test C preemergence; type: in vivo, Alopecurus myosuroides; settings: 0 to 100 scale (0 no effect, 100 complete control); for Plant response rating, Blackgrass: Preemergence, 500 g ai/ha, visual rating after 10 days; for Blackgrass plant response rating: Test C, preemergence, 125 g ai/ha
How it was run: as §2

wheat [4] = test: Test C preemergence; type: in vivo, Triticum aestivum; settings: 0 to 100 scale (0 no effect, 100 complete control); for Wheat plant response rating: preemergence
How it was run: as §2

ryegrass, Italian [5] = test: Test C preemergence; type: in vivo, Lolium multiflorum; settings: 0 to 100 scale (0 no effect, 100 complete control); for Ryegrass, Italian plant response rating: preemergence
How it was run: as §2

soybean [6] = test: Test C preemergence; type: in vivo, Glycine max; settings: 0 to 100 scale (0 no effect, 100 complete control); for Soybean plant response rating: preemergence
How it was run: as §2

oat, wild [7] = test: Test C postemergence; type: in vivo, Avena fatua; settings: 10 days
How it was run: as §2

oat, wild [8] = test: Test C preemergence; type: in vivo, Avena fatua; settings: 0 to 100 scale (0 no effect, 100 complete control); for Oat, Wild plant response rating: preemergence
How it was run: as §2

kochia [9] = test: Test C postemergence; type: in vivo, Bassia scoparia; settings: 10 days
How it was run: as §2

kochia [10] = test: Test C preemergence; type: in vivo, Bassia scoparia; settings: 0 to 100 scale (0 no effect, 100 complete control); for Kochia plant response rating: preemergence
How it was run: as §2

barnyardgrass [11] = test: Test C postemergence; type: in vivo, Echinochloa crusgalli; settings: 10 days
How it was run: as §2

pigweed, palmer [12] = test: Test C preemergence; type: in vivo, Amaranthus palmeri; settings: 0 to 100 scale (0 no effect, 100 complete control); for Pigweed, Palmer plant response rating: preemergence
How it was run: as §2

rice = test: Test D flooded paddy test; type: in vivo, Oryza sativa; settings: 250 g ai/ha, applied to paddy water, visual rating after 13 to 14 days, scale 0 to 100 (0 no effect, 100 complete control)
How it was run: as §1

soybean [13] = test: Test C postemergence; type: in vivo, Glycine max; settings: 10 days
How it was run: as §2

sedge, umbrella = test: Test D flooded paddy test; type: in vivo, Cyperus difformis; settings: 250 g ai/ha, applied to paddy water, visual rating after 13 to 14 days, scale 0 to 100 (0 no effect, 100 complete control)
How it was run: as §1

green foxtail [14] = test: Test C preemergence; type: in vivo, Setaria viridis; settings: 0 to 100 scale (0 no effect, 100 complete control); for Foxtail, Green plant response rating: preemergence
How it was run: as §2

green foxtail [15] = test: Test C postemergence; type: in vivo, Setaria viridis; settings: 10 days
How it was run: as §2

wheat [16] = test: Test C postemergence; type: in vivo, Triticum aestivum; settings: 10 days
How it was run: as §2

corn [17] = test: Test C postemergence; type: in vivo, Zea mays; settings: 10 days
How it was run: as §2

horseweed = test: Test C postemergence; type: in vivo, Erigeron canadensis; settings: 10 days
How it was run: as §2

ragweed [18] = test: Test C postemergence; type: in vivo, Ambrosia artemisiifolia; settings: 10 days
How it was run: as §2

ragweed [19] = test: Test C preemergence; type: in vivo, Ambrosia artemisiifolia; settings: 0 to 100 scale (0 no effect, 100 complete control); for Ragweed plant response rating: preemergence
How it was run: as §2

barnyardgrass [20] = test: Test C preemergence; type: in vivo, Echinochloa crusgalli; settings: 0 to 100 scale (0 no effect, 100 complete control); for Barnyardgrass plant response rating: 125 g ai/ha, preemergence; for Plant response rating, Barnyardgrass: Preemergence, 500 g ai/ha, visual rating after 10 days
How it was run: as §2

barnyardgrass [21] = test: Test D flooded paddy test; type: in vivo, Echinochloa crus-galli; settings: 250 g ai/ha, applied to paddy water, visual rating after 13 to 14 days, scale 0 to 100 (0 no effect, 100 complete control)
How it was run: as §1

ryegrass, Italian [22] = test: Test C postemergence; type: in vivo, Lolium multiflorum; settings: 10 days
How it was run: as §2

pigweed, palmer [23] = test: Test C postemergence; type: in vivo, Amaranthus palmeri; settings: 10 days
How it was run: as §2

[24] = 125 g ai/ha, postemergence, 0 to 100 scale, 0 no effect, 100 complete control
[25] = Postemergence, 500 g ai/ha, visual 0 to 100 scale (0 no effect, 100 complete control)
[26] = Preemergence, 500 g ai/ha, visual rating after 10 days

CCn1cnc(-c2cccc(C(=O)N3C[C@H](C)Oc4c(C)cccc43)c2)n1 [Compound 165]
0: Plant response rating, Ducksalad (Flood) (ducksalad) | Plant response rating, Galium (galium; [24]) | Plant response rating, Galium (galium; [25]) | Plant response rating, Blackgrass (blackgrass [1]; [24]) | Plant response rating, Corn (corn [2]; [26]) | Corn plant response rating (corn [2]; Test C, 125 g ai/ha) | Plant response rating, Blackgrass (blackgrass [3]) | Blackgrass plant response rating (blackgrass [3]) | Plant response rating, Wheat (wheat [4]; [26]) | Wheat plant response rating (wheat [4]; Test C, 125 g ai/ha) | Plant response rating, Ryegrass, Italian (ryegrass, Italian [5]; [26]) | Ryegrass, Italian plant response rating (ryegrass, Italian [5]; Test C, 125 g ai/ha) | Plant response rating, Soybean (soybean [6]; [26]) | Soybean plant response rating (soybean [6]; Test C, 125 g ai/ha) | Plant response rating, Oat, Wild (oat, wild [7]; [24]) | Plant response rating, Oat, Wild (oat, wild [7]; [25]) | Plant response rating, Oat, Wild (oat, wild [8]; [26]) | Oat, Wild plant response rating (oat, wild [8]; Test C, 125 g ai/ha) | Plant response rating, Kochia (kochia [9]; [24]) | Plant response rating, Kochia (kochia [9]; [25]) | Plant response rating, Kochia (kochia [10]; [26]) | Kochia plant response rating (kochia [10]; Test C, 125 g ai/ha) | Plant response rating, Barnyardgrass (barnyardgrass [11]; [24]) | Plant response rating, Pigweed, Palmer (pigweed, palmer [12]; [26]) | Pigweed, Palmer plant response rating (pigweed, palmer [12]; Test C, 125 g ai/ha) | Plant response rating, Rice (Flood) (rice) | Plant response rating, Sedge, Umbrella (Flood) (sedge, umbrella) | Plant response rating, Foxtail, Green (green foxtail [14]; [26]) | Foxtail, Green plant response rating (green foxtail [14]; Test C, 125 g ai/ha) | Plant response rating, Foxtail, Green (green foxtail [15]; [24]) | Plant response rating, Foxtail, Green (green foxtail [15]; [25]) | Plant response rating, Wheat (wheat [16]; [24]) | Plant response rating, Wheat (wheat [16]; [25]) | Plant response rating, Corn (corn [17]; [24]) | Plant response rating, Corn (corn [17]; [25]) | Plant response rating, Horseweed (horseweed; [24]) | Plant response rating, Ragweed (ragweed [18]; [24]) | Plant response rating, Ragweed (ragweed [18]; [25]) | Ragweed plant response rating (ragweed [19]; Test C, 125 g ai/ha) | Barnyardgrass plant response rating (barnyardgrass [20]) | Plant response rating, Barnyardgrass (barnyardgrass [20]) | Plant response rating, Barnyardgrass (Flood) (barnyardgrass [21]) | Plant response rating, Ryegrass, Italian (ryegrass, Italian [22]; [24]) | Plant response rating, Ryegrass, Italian (ryegrass, Italian [22]; [25]) | Plant response rating, Pigweed, Palmer (pigweed, palmer [23]; [24])
60: Plant response rating, Horseweed (horseweed; [25])
20: Plant response rating, Ragweed (ragweed [19]; [26])
30: Plant response rating, Soybean (soybean [13]; [24]) | Plant response rating, Soybean (soybean [13]; [25])
10: Plant response rating, Blackgrass (blackgrass [1]; [25]) | Plant response rating, Barnyardgrass (barnyardgrass [11]; [25]) | Plant response rating, Pigweed, Palmer (pigweed, palmer [23]; [25])

Cc1cccc2c1O[C@@H](C)CN2C(=O)c1cccc(-n2cnc(C(C)(C)O)n2)c1 [Compound 278]
0: Plant response rating, Horseweed (horseweed; [24])
70: Plant response rating, Wheat (wheat [16]; [24]) | Plant response rating, Ragweed (ragweed [18]; [24]) | Ragweed plant response rating (ragweed [19]; Test C, 125 g ai/ha)
15: Plant response rating, Rice (Flood) (rice)
50: Wheat plant response rating (wheat [4]; Test C, 125 g ai/ha) | Plant response rating, Barnyardgrass (barnyardgrass [11]; [24]) | Plant response rating, Foxtail, Green (green foxtail [15]; [24]) | Plant response rating, Corn (corn [17]; [24]) | Plant response rating, Horseweed (horseweed; [25]) | Plant response rating, Pigweed, Palmer (pigweed, palmer [23]; [24])
45: Plant response rating, Barnyardgrass (Flood) (barnyardgrass [21])
80: Corn plant response rating (corn [2]; 500 g ai/ha) | Ryegrass, Italian plant response rating (ryegrass, Italian [5]; Test C, 125 g ai/ha) | Plant response rating, Oat, Wild (oat, wild [7]; [24]) | Oat, Wild plant response rating (oat, wild [8]; Test C, 125 g ai/ha) | Plant response rating, Kochia (kochia [9]; [24]) | Ragweed plant response rating (ragweed [19]; 500 g ai/ha) | Plant response rating, Ryegrass, Italian (ryegrass, Italian [22]; [24])
100: Plant response rating, Ducksalad (Flood) (ducksalad) | Plant response rating, Galium (galium; [24]) | Plant response rating, Galium (galium; [25]) | Wheat plant response rating (wheat [4]; 500 g ai/ha) | Ryegrass, Italian plant response rating (ryegrass, Italian [5]; 500 g ai/ha) | Soybean plant response rating (soybean [6]; 500 g ai/ha) | Kochia plant response rating (kochia [10]; 500 g ai/ha) | Pigweed, Palmer plant response rating (pigweed, palmer [12]; 500 g ai/ha) | Pigweed, Palmer plant response rating (pigweed, palmer [12]; Test C, 125 g ai/ha) | Plant response rating, Soybean (soybean [13]; [24]) | Plant response rating, Sedge, Umbrella (Flood) (sedge, umbrella) | Foxtail, Green plant response rating (green foxtail [14]; 500 g ai/ha) | Foxtail, Green plant response rating (green foxtail [14]; Test C, 125 g ai/ha) | Plant response rating, Barnyardgrass (barnyardgrass [20]) | Barnyardgrass plant response rating (barnyardgrass [20]; Test C)
90: Plant response rating, Blackgrass (blackgrass [1]; [24]) | Plant response rating, Blackgrass (blackgrass [1]; [25]) | Plant response rating, Blackgrass (blackgrass [3]) | Blackgrass plant response rating (blackgrass [3]) | Soybean plant response rating (soybean [6]; Test C, 125 g ai/ha) | Oat, Wild plant response rating (oat, wild [8]; 500 g ai/ha) | Kochia plant response rating (kochia [10]; Test C, 125 g ai/ha) | Plant response rating, Barnyardgrass (barnyardgrass [11]; [25]) | Plant response rating, Foxtail, Green (green foxtail [15]; [25]) | Plant response rating, Corn (corn [17]; [25])
